Columns and labels:
Conditions in all cases: 1 µM; inhibitor
ACVR1 = ACVR1 (Homo sapiens, UniProt Q04771)
ASK1 = ASK1 (Homo sapiens, UniProt Q99683)
CAMKK2 = CAMKK2 (Homo sapiens, UniProt Q96RR4)
CDC42BPB = CDC42BPB (Homo sapiens, UniProt Q9Y5S2)
CDK1/CycB1 = CDK1/CycB1 (Homo sapiens, UniProt P06493)
CLK4 = CLK4 (Homo sapiens, UniProt Q9HAZ1)
DYRK2 = DYRK2 (Homo sapiens, UniProt Q92630)
EIF2AK3 = EIF2AK3 (Homo sapiens, UniProt Q9NZJ5)
ERBB2 = ERBB2 (Homo sapiens, UniProt P04626)
ERK7 = ERK7 (Homo sapiens, UniProt Q8TD08)
FER = FER (Homo sapiens, UniProt P16591)
FGFR1 = FGFR1 (Homo sapiens, UniProt P11362)
FGR = FGR (Homo sapiens, UniProt P09769)
FLT4 = FLT4 (Homo sapiens, UniProt P35916)
GRK5 = GRK5 (Homo sapiens, UniProt P34947)
Sequence of GRK5 (P34947 whole entry): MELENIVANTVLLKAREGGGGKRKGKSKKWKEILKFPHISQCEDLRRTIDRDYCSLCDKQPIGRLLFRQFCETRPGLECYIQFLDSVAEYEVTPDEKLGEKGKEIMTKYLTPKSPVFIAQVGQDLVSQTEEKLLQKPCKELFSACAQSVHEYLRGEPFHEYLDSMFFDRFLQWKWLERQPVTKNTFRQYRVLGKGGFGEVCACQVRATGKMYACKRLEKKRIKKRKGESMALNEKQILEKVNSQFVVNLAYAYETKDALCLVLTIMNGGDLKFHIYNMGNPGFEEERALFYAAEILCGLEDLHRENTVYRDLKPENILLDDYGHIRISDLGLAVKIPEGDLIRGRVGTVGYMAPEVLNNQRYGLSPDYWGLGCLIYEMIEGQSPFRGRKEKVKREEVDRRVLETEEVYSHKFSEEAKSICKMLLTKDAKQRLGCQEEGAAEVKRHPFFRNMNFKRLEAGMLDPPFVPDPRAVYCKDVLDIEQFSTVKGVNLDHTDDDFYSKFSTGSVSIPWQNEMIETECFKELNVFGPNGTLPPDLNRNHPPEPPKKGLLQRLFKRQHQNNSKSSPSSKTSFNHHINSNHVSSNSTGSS

JAK3 = JAK3 (Homo sapiens, UniProt P52333)
LRRK2 = LRRK2 (Homo sapiens, UniProt Q5S007)
MAP3K11 = MAP3K11 (Homo sapiens, UniProt Q16584)
MARK3 = MARK3 (Homo sapiens, UniProt P27448)
NDR2 = NDR2 (Homo sapiens, UniProt Q9Y2H1)
NEK11 = NEK11 (Homo sapiens, UniProt Q8NG66)
RPS6KA3 = RPS6KA3 (Homo sapiens, UniProt P51812)
SIK1 = SIK1 (Homo sapiens, UniProt P57059)
Sequence of SIK1 (P57059 whole entry): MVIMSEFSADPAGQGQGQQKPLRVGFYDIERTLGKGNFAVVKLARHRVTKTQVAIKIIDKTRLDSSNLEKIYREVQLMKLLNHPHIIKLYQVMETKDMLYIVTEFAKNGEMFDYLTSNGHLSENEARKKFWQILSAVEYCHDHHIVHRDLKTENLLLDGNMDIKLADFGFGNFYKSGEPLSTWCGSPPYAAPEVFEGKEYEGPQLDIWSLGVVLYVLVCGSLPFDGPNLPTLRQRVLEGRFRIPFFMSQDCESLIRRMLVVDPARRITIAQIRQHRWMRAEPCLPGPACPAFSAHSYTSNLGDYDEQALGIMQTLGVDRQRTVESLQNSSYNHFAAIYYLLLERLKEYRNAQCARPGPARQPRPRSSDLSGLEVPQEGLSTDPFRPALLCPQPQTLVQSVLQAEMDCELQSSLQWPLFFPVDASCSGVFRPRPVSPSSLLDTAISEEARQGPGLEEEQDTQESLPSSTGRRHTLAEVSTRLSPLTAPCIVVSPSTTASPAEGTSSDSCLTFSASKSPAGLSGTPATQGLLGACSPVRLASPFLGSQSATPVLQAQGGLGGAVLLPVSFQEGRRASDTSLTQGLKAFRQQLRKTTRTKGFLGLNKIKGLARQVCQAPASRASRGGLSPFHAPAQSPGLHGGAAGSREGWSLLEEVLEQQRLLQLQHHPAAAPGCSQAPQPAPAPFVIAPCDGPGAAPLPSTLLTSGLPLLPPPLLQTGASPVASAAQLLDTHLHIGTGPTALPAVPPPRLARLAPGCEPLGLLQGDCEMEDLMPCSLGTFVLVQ

SNARK = SNARK (Homo sapiens, UniProt Q9H093)
SRPK1 = SRPK1 (Homo sapiens, UniProt Q96SB4)
TGFBR2 = TGFBR2 (Homo sapiens, UniProt P37173)
TIE2 = TIE2 (Homo sapiens, UniProt Q02763)
TYRO3 = TYRO3 (Homo sapiens, UniProt Q06418)
ULK2 = ULK2 (Homo sapiens, UniProt Q8IYT8)
VRK2 = VRK2 (Homo sapiens, UniProt Q86Y07)
ZAK = ZAK (Homo sapiens, UniProt Q9NYL2)

Sequence of ASK1 (Q99683 whole entry): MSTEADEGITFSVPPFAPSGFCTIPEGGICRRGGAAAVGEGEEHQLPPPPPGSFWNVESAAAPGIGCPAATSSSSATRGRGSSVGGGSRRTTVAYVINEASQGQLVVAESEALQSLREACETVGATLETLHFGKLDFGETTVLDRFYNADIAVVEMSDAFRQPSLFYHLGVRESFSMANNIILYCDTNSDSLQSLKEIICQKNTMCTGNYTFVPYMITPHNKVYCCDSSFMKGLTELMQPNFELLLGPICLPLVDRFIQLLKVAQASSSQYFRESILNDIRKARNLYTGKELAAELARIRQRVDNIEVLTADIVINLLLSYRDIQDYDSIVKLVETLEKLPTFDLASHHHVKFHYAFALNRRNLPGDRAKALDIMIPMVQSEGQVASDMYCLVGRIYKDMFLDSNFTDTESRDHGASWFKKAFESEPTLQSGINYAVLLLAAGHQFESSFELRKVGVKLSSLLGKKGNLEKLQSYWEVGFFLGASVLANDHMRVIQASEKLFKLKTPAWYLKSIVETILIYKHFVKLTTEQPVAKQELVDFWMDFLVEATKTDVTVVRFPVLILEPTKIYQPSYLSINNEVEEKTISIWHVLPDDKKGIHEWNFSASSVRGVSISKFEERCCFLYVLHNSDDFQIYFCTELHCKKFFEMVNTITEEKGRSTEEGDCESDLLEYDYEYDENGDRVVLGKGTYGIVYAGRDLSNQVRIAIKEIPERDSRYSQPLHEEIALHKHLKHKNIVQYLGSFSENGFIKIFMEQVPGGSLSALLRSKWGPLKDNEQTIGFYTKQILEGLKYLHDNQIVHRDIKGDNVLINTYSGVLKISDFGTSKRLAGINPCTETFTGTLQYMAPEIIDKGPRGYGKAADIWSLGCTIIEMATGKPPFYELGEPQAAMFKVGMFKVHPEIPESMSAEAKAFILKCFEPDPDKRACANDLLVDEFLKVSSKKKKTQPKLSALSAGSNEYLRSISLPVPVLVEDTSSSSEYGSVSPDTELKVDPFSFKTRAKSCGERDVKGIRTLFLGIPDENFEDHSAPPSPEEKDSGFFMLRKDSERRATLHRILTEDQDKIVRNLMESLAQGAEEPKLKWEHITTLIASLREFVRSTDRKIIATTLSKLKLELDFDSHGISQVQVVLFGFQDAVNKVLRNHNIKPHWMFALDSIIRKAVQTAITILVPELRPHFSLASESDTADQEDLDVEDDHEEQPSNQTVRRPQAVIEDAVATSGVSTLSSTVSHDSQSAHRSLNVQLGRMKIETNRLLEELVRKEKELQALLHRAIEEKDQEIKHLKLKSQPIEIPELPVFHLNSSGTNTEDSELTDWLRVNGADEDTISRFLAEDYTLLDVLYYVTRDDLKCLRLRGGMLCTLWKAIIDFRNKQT
Sequence of CDC42BPB (Q9Y5S2 whole entry): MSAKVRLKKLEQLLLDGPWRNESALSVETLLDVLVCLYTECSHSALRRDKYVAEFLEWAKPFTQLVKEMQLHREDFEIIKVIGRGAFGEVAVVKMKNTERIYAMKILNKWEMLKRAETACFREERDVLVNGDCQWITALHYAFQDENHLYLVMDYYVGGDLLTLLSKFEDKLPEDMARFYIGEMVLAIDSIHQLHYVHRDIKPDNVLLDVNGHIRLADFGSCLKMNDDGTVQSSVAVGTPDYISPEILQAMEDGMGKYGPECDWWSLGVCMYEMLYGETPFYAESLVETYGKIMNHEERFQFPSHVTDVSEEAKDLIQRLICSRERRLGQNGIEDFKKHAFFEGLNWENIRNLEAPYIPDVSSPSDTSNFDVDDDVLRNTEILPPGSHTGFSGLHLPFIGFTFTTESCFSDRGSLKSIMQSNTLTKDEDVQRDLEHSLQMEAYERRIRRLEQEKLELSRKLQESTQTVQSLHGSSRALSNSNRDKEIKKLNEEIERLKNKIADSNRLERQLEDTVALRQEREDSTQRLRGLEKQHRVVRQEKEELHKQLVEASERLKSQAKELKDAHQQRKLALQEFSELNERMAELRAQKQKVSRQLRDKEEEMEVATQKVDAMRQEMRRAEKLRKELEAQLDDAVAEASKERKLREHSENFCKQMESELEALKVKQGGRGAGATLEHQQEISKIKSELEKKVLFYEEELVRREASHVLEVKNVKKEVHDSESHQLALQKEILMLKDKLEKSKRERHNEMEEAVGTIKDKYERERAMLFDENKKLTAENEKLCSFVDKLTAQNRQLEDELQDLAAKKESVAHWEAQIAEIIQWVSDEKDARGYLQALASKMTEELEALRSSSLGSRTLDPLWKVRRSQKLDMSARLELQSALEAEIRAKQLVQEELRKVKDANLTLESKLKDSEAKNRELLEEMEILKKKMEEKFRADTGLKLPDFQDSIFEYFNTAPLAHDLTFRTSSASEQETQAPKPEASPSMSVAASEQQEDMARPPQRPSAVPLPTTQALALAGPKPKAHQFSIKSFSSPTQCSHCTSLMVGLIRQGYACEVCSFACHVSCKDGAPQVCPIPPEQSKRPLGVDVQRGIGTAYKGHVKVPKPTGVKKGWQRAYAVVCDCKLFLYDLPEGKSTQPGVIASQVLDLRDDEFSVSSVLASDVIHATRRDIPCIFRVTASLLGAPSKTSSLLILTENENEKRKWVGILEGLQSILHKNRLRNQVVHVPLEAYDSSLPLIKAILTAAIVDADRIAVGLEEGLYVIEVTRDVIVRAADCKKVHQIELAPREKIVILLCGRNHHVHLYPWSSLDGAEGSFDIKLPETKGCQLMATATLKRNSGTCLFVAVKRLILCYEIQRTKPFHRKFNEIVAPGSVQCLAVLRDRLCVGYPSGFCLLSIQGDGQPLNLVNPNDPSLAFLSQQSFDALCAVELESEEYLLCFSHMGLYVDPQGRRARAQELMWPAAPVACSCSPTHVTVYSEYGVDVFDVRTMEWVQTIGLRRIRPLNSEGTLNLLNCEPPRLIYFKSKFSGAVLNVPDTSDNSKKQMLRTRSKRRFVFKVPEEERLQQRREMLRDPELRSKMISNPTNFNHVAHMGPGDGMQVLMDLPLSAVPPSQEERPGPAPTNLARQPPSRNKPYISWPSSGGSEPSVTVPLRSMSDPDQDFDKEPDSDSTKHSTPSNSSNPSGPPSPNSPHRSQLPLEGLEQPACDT
Sequence of ACVR1 (Q04771 whole entry): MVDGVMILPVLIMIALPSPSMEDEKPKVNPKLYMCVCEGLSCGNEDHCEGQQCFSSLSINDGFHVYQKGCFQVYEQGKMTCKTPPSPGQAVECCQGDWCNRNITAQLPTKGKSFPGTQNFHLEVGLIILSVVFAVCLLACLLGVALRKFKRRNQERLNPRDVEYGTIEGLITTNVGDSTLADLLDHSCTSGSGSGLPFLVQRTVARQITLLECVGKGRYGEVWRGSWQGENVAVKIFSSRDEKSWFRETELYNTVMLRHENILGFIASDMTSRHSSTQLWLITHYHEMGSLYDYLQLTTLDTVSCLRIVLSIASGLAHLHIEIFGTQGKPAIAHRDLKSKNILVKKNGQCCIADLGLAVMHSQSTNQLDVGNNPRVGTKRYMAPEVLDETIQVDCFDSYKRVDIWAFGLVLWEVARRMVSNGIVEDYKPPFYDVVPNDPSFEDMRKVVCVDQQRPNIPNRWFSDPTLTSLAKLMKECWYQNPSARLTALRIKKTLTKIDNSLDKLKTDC

Question: Which “21c Remaining activity, percent of control [%]” value (ACVR1) does the source give for `O=C1NCCCCCNc2nc(c3ccccc3n2)Nc2cc1[nH]n2` [21c, (Z)-3^1H-2,5,11-triaza-1(4,2)-quinazolina-3(3,5)-pyrazolacycloundecaphan-4-one] here?
Answer: 81.0%

Question: And the “21c Remaining activity, percent of control [%]” value (ASK1)?
Answer: 97.7%

Question: What about the “21c Remaining activity, percent of control [%]” value (CAMKK2) of the same compound?
Answer: 90.8%

Question: What about the “21c Remaining activity, percent of control [%]” value (CDC42BPB) of the same compound?
Answer: 106.6%

Question: And the “21c Remaining activity, percent of control [%]” value (CDK1/CycB1)?
Answer: 87.2%

Question: And the “21c Remaining activity, percent of control [%]” value (CLK4)?
Answer: 76.4%

Question: And the “21c Remaining activity, percent of control [%]” value (DYRK2)?
Answer: 91.4%

Question: And the “21c Remaining activity, percent of control [%]” value (EIF2AK3)?
Answer: 87.8%

Question: What about the “21c Remaining activity, percent of control [%]” value (ERBB2) of the same compound?
Answer: 94.1%

Question: And the “21c Remaining activity, percent of control [%]” value (ERK7)?
Answer: 90.2%

Question: What about the “21c Remaining activity, percent of control [%]” value (FER) of the same compound?
Answer: 101.7%

Question: What about the “21c Remaining activity, percent of control [%]” value (FGFR1) of the same compound?
Answer: 80.9%

Question: And the “21c Remaining activity, percent of control [%]” value (FGR)?
Answer: 75.3%

Question: And the “21c Remaining activity, percent of control [%]” value (FLT4)?
Answer: 93.9%

Question: And the “21c Remaining activity, percent of control [%]” value (GRK5)?
Answer: 103.8%

Question: And the “21c Remaining activity, percent of control [%]” value (JAK3)?
Answer: 115.4%

Question: What about the “21c Remaining activity, percent of control [%]” value (LRRK2) of the same compound?
Answer: 90.3%

Question: And the “21c Remaining activity, percent of control [%]” value (MAP3K11)?
Answer: 45.8%

Question: And the “21c Remaining activity, percent of control [%]” value (MARK3)?
Answer: 101.1%

Question: What about the “21c Remaining activity, percent of control [%]” value (NDR2) of the same compound?
Answer: 93.9%

Question: What about the “21c Remaining activity, percent of control [%]” value (NEK11) of the same compound?
Answer: 93.3%

Question: What about the “21c Remaining activity, percent of control [%]” value (RPS6KA3) of the same compound?
Answer: 87.3%

Question: And the “21c Remaining activity, percent of control [%]” value (SIK1)?
Answer: 86.3%

Question: What about the “21c Remaining activity, percent of control [%]” value (SNARK) of the same compound?
Answer: 95.6%

Question: What about the “21c Remaining activity, percent of control [%]” value (SRPK1) of the same compound?
Answer: 101.4%

Question: And the “21c Remaining activity, percent of control [%]” value (TGFBR2)?
Answer: 81.8%

Question: What about the “21c Remaining activity, percent of control [%]” value (TIE2) of the same compound?
Answer: 116.9%

Question: What about the “21c Remaining activity, percent of control [%]” value (TYRO3) of the same compound?
Answer: 77.8%

Question: And the “21c Remaining activity, percent of control [%]” value (ULK2)?
Answer: 96.0%

Question: What about the “21c Remaining activity, percent of control [%]” value (VRK2) of the same compound?
Answer: 96.9%

Question: And the “21c Remaining activity, percent of control [%]” value (ZAK)?
Answer: 82.9%

— publication doi:10.1101/2023.10.20.563248v1 (biorxiv, 2023)
